Source: patent US20060069132A1, “Azolecarboxamide herbicides” (priority 2004, published 2006)

How the values were obtained:
[1] = system: downy bromegrass; experiment: Test C postemergence herbicide test; assay type: in vivo, Bromus tectorum
How it was run: (§1)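 Plants were grown to the 1- to 4-leaf stage (2–18 cm) and then treated postemergence, or grown to the 2-leaf stage for the flooded paddy test. They were held in a greenhouse for 12 to 14 days and then scored by eye against controls, where 0 is no effect and 100 is complete control.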

[2] = system: green foxtail; experiment: Test C postemergence herbicide test; assay type: in vivo, Setaria viridis
How it was run: as §1

[3] = system: wheat; experiment: Test C postemergence herbicide test; assay type: in vivo, Triticum aestivum
How it was run: as §1

[4] = system: windgrass; experiment: Test C postemergence herbicide test; assay type: in vivo, Apera spica-venti
How it was run: as §1

[5] = system: green foxtail; experiment: Test E pre-/postemergence herbicide test; assay type: in vivo, Setaria viridis; conditions: Preemergence
Text: (§2) Seeds of plant species selected from bipinnate beggarticks (Bidens bipinnata L.), hairy beggarticks (Bidens radiata Thuill.), bermudagrass (Cynodon dactylon (L.) Pers.), Surinam grass (Urochloa decumbens (Staph) R. D. Webster, previously named Brachiaria decumbens Stapf), large crabgrass (Digitaria sanguinalis (L.) Scop.), green foxtail (Setaria viridis (L.) P. Beauv.), goosegrass (Eleusine indica (L.) Gaertn.), johnsongrass (Sorghum halepense (L.) Pers.), kochia (Kochia scoparia (L.) Schrad.), pitted morningglory (Ipomoea lacunosa L.), purple nutsedge (Cyperus rotundus L.), common ragweed (Ambrosia elatior L.), mustard (Brassica nigra (L.) W. D. J. Koch), guineagrass (Panicum maximum Jacq.), dallisgrass (Paspalum dilatatum Poir.), barnyardgrass (Echinochloa crus-galli (L). P. Beauv.), southern sandbur (Cenchrus echinatus L.), common sowthistle (Sonchus oleraceous L.), prickly sida (Sida spinosa L.), Italian ryegrass (Lolium multiflorum Lam.), common purslane (Portulaca oleracea L.), broadleaf signalgrass (Brachiaria platyphylla (Griseb.) Nash), common groundsel (Senecio vulgaris L.), common chickweed (Stellaria media (L.) Vill/Cyr.), tropical spiderwort (Commelina benghalensis L.), annual bluegrass (Poa annua L.), downy bromegrass (Bromus tectorum L.), itchgrass (Rottboellia cochinchinensis (L.) L.f.), quackgrass (Elytrigia repens (L.) Nevski), Canada horseweed (Erigeron Canadensis L.), field bindweed (Convolvulus arvensis L.), spotted spurge (Euphorbia maculata L.), common mallow (Malva sylvestris (=s silvestris) L.), and Russian thistle (Salsola kali L. ssp. Ruthenica (Iljin) Soo) were planted and treated preemergence with test chemicals formulated in a non-phytotoxic solvent mixture which included a surfactant.
(§3) At the same time, plants selected from these weed species were treated with postemergence applications of some of the test chemicals formulated in the same manner. Plants ranged in height from 2 to 18 cm (1- to 4-leaf stage) for postemergence treatments. Treated plants and controls were maintained in a greenhouse for 12 to 14 days, after which time all species were compared to controls and visually evaluated. Plant response ratings, summarized in Table E, are based on a scale of 0 to 100 where 0 is no effect and 100 is complete control. A dash (-) response means no test result.

[6] = system: goosegrass; experiment: Test E pre-/postemergence herbicide test; assay type: in vivo, Eleusine indica; conditions: Preemergence
Text: as §2, §3

[7] = system: johnsongrass; experiment: Test E pre-/postemergence herbicide test; assay type: in vivo, Sorghum halepense; conditions: Preemergence
Text: as §2, §3

[8] = system: guineagrass; experiment: Test E pre-/postemergence herbicide test; assay type: in vivo, Panicum maximum; conditions: Preemergence
Text: as §2, §3

[9] = system: common sowthistle; experiment: Test E pre-/postemergence herbicide test; assay type: in vivo, Sonchus oleraceous; conditions: Preemergence
Text: as §2, §3

[10] = system: itchgrass; experiment: Test E pre-/postemergence herbicide test; assay type: in vivo, Rottboellia cochinchinensis; conditions: Preemergence
Text: as §2, §3

[11] = system: quackgrass; experiment: Test E pre-/postemergence herbicide test; assay type: in vivo, Elytrigia repens; conditions: Preemergence
Text: as §2, §3

[12] = system: common mallow; experiment: Test E pre-/postemergence herbicide test; assay type: in vivo, Malva sylvestris; conditions: Preemergence
Text: as §2, §3

[13] = Postemergence, 250 g ai/ha, scale 0 to 100, 0 no effect, 100 complete control
[14] = postemergence, 125 g ai/ha, scale 0 to 100
[15] = postemergence, 31 g ai/ha, scale 0 to 100
[16] = postemergence, 62 g ai/ha, scale 0 to 100
[17] = Postemergence, 500 g ai/ha, scale 0 to 100
[18] = 250 g ai/ha, scale 0 (no effect) to 100 (complete control)
[19] = 500 g ai/ha, scale 0 (no effect) to 100 (complete control)
[20] = Postemergence, 500 g ai/ha, scale 0 to 100, 0 no effect, 100 complete control

CCn1nc(C(C)(C)C)cc1C(=O)Nc1cccc(C(=O)NCC2CC2)c1 [Compound 62]
Plant response rating, Bromegrass, Downy [1, 13]: 30
Plant response rating, Bromegrass, Downy [1, 14]: 20
Plant response rating, Bromegrass, Downy [1, 15]: 10
Plant response rating, Bromegrass, Downy [1, 16]: 20
Plant response rating, Foxtail, Green [2, 13]: 50
Plant response rating, Foxtail, Green [2, 14]: 50
Plant response rating, Foxtail, Green [2, 16]: 40
Plant response rating, Wheat [3, 13]: 10
Plant response rating, Wheat [3, 14]: 10
Plant response rating, Wheat [3, 16]: 10
Plant response rating, Windgrass [4, 13]: 50
Plant response rating, Windgrass [4, 14]: 40
Plant response rating, Windgrass [4, 16]: 30

CCCCOc1cccc(NC(=O)c2cc(C(C)(C)C)nn2CC)c1 [Compound 137]
Bromegrass, Downy plant response rating [1, 17]: 40
Plant response rating, Bromegrass, Downy [1, 13]: 20
Plant response rating, Bromegrass, Downy [1, 14]: 20
Plant response rating, Bromegrass, Downy [1, 16]: 10
Foxtail, Green plant response rating [2, 17]: 50
Plant response rating, Foxtail, Green [2, 13]: 50
Plant response rating, Foxtail, Green [2, 14]: 50
Plant response rating, Foxtail, Green [2, 16]: 30
Wheat plant response rating [3, 17]: 40
Plant response rating, Wheat [3, 13]: 30
Plant response rating, Wheat [3, 14]: 30
Plant response rating, Wheat [3, 16]: 30
Windgrass plant response rating [4, 17]: 60
Plant response rating, Windgrass [4, 13]: 50
Plant response rating, Windgrass [4, 14]: 50
Plant response rating, Windgrass [4, 16]: 30

CCN1N=C(C(C)(C)C)CC1C(=O)Nc1cc(C(=O)N(C)C)ccc1F (centres unmarked) [Compound 268, N-[5-[(dimethylamino)carbonyl]-2-fluorophenyl]-3-(1,1-dimethylethyl)-1-ethyl-4,5-dihydro-1H-pyrazole-5-carboxamide]
Plant response rating, Bromegrass, Downy [1, 13]: 40
Plant response rating, Bromegrass, Downy [1, 14]: 30
Plant response rating, Bromegrass, Downy [1, 15]: 0
Plant response rating, Bromegrass, Downy [1, 16]: 10
Plant response rating, Foxtail, Green [2, 13]: 50
Plant response rating, Foxtail, Green [2, 14]: 45
Plant response rating, Foxtail, Green [2, 16]: 40
Plant response rating, Wheat [3, 13]: 25
Plant response rating, Wheat [3, 14]: 0
Plant response rating, Wheat [3, 16]: 0
Plant response rating, Windgrass [4, 13]: 100
Plant response rating, Windgrass [4, 14]: 60
Plant response rating, Windgrass [4, 16]: 30
Plant response rating, Foxtail, Green ([5]; 62 g ai/ha, scale 0 to 100): 70
Plant response rating, Foxtail, Green ([5]; 125 g ai/ha, scale 0 to 100): 95
Plant response rating, Foxtail, Green [5, 18]: 100
Plant response rating, Foxtail, Green [5, 19]: 100
Plant response rating, Goosegrass ([6]; 62 g ai/ha, scale 0 to 100): 70
Plant response rating, Goosegrass ([6]; 125 g ai/ha, scale 0 to 100): 80
Plant response rating, Goosegrass [6, 18]: 95
Plant response rating, Goosegrass [6, 19]: 95
Plant response rating, Johnsongrass ([7]; 62 g ai/ha, scale 0 to 100): 30
Plant response rating, Johnsongrass ([7]; 125 g ai/ha, scale 0 to 100): 50
Plant response rating, Johnsongrass [7, 18]: 50
Plant response rating, Johnsongrass [7, 19]: 80
Plant response rating, Guineagrass ([8]; 62 g ai/ha, scale 0 to 100): 70
Plant response rating, Guineagrass ([8]; 125 g ai/ha, scale 0 to 100): 85
Plant response rating, Guineagrass [8, 18]: 100
Plant response rating, Guineagrass [8, 19]: 100
Plant response rating, Sowthistle ([9]; 62 g ai/ha, scale 0 to 100): 80
Plant response rating, Sowthistle ([9]; 125 g ai/ha, scale 0 to 100): 100
Plant response rating, Sowthistle [9, 18]: 100
Plant response rating, Sowthistle [9, 19]: 100
Plant response rating, Itchgrass ([10]; 62 g ai/ha, scale 0 to 100): 50
Plant response rating, Itchgrass ([10]; 125 g ai/ha, scale 0 to 100): 60
Plant response rating, Itchgrass [10, 18]: 75
Plant response rating, Itchgrass [10, 19]: 95
Plant response rating, Quackgrass ([11]; 62 g ai/ha, scale 0 to 100): 40
Plant response rating, Quackgrass ([11]; 125 g ai/ha, scale 0 to 100): 85
Plant response rating, Quackgrass [11, 18]: 95
Plant response rating, Quackgrass [11, 19]: 95
Plant response rating, Mallow ([12]; 62 g ai/ha, scale 0 to 100): 50
Plant response rating, Mallow ([12]; 125 g ai/ha, scale 0 to 100): 50
Plant response rating, Mallow [12, 18]: 80
Plant response rating, Mallow [12, 19]: 90

CCOC(=O)c1cccc(NC(=O)c2cc(C3(C)CC3)nn2CC)c1 [Compound 295]
Plant response rating, Bromegrass, Downy [1, 13]: 45
Plant response rating, Bromegrass, Downy [1, 14]: 45
Plant response rating, Bromegrass, Downy [1, 15]: 45
Plant response rating, Bromegrass, Downy [1, 16]: 45
Plant response rating, Foxtail, Green [2, 13]: 60
Plant response rating, Foxtail, Green [2, 14]: 50
Plant response rating, Foxtail, Green [2, 16]: 45
Plant response rating, Wheat [3, 13]: 45
Plant response rating, Wheat [3, 14]: 45
Plant response rating, Wheat [3, 16]: 45
Plant response rating, Windgrass [4, 13]: 65
Plant response rating, Windgrass [4, 14]: 60
Plant response rating, Windgrass [4, 16]: 50

CCn1nc(C2(C)CC2)cc1C(=O)Nc1cc(C(=O)N2CC=CC2)ccc1F [Compound 301]
Bromegrass, Downy plant response rating [1, 17]: 40
Plant response rating, Bromegrass, Downy [1, 13]: 40
Plant response rating, Bromegrass, Downy [1, 14]: 40
Plant response rating, Bromegrass, Downy [1, 16]: 40
Foxtail, Green plant response rating [2, 17]: 65
Plant response rating, Foxtail, Green [2, 13]: 60
Plant response rating, Foxtail, Green [2, 14]: 45
Plant response rating, Foxtail, Green [2, 16]: 40
Wheat plant response rating [3, 17]: 40
Plant response rating, Wheat [3, 13]: 55
Plant response rating, Wheat [3, 14]: 45
Plant response rating, Wheat [3, 16]: 40
Windgrass plant response rating [4, 17]: 40
Plant response rating, Windgrass [4, 13]: 35
Plant response rating, Windgrass [4, 14]: 35
Plant response rating, Windgrass [4, 16]: 35

CCn1nc(C(C)(C)C)cc1C(=O)Nc1cc(OC(F)(F)F)ccc1F [Compound 338]
Plant response rating, Bromegrass, Downy [1, 13]: 40
Plant response rating, Bromegrass, Downy [1, 20]: 45
Plant response rating, Bromegrass, Downy [1, 14]: 35
Plant response rating, Bromegrass, Downy [1, 16]: 30
Plant response rating, Foxtail, Green [2, 13]: 40
Plant response rating, Foxtail, Green [2, 20]: 50
Plant response rating, Foxtail, Green [2, 14]: 40
Plant response rating, Foxtail, Green [2, 16]: 30
Plant response rating, Wheat [3, 13]: 35
Plant response rating, Wheat [3, 20]: 45
Plant response rating, Wheat [3, 14]: 25
Plant response rating, Wheat [3, 16]: 25
Plant response rating, Windgrass [4, 14]: 15
Plant response rating, Windgrass [4, 16]: 10

CCn1nc(C(C)(C)C)cc1C(=O)Nc1cccc(OS(=O)(=O)CC)c1 [Compound 408]
Plant response rating, Bromegrass, Downy [1, 13]: 55
Plant response rating, Bromegrass, Downy [1, 20]: 55
Plant response rating, Bromegrass, Downy [1, 14]: 45
Plant response rating, Bromegrass, Downy [1, 16]: 40
Plant response rating, Foxtail, Green [2, 13]: 70
Plant response rating, Foxtail, Green [2, 20]: 80
Plant response rating, Foxtail, Green [2, 14]: 60
Plant response rating, Foxtail, Green [2, 16]: 40
Plant response rating, Wheat [3, 20]: 40
Plant response rating, Wheat [3, 14]: 30
Plant response rating, Wheat [3, 16]: 30
Plant response rating, Windgrass [4, 20]: 65
Plant response rating, Windgrass [4, 14]: 45
Plant response rating, Windgrass [4, 16]: 40
